From the supplement of paper PMC10307832

Assays:
Test in all cases: relative viability (nuclei count vs DMSO), 5 days (fraction); higher = more cells survive
[1] = compound: Nc1ccccc1NC(=O)c1ccc(CNC(=O)OCc2cccnc2)cc1 [Entinostat] + Nc1ncn([C@H]2C[C@H](O)[C@@H](CO)O2)c(=O)n1 [Decitabine] (partner 2 µM)
Summary of the method: (§1)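 Relative viability is defined as nuclei in treated wells over nuclei in vehicle wells. Duplicate plates were run and medians reported. Lung cancer cell lines in 1536-well plates were dosed by pin tool one day after seeding, with one drug or with a fixed anchor-drug dose plus five library-drug doses (not always all listed) in √10 steps, and nuclei were counted after 5 days.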

[2] = compound: C1COCCN1C2=NC(=NC3=C2OC4=C3C=CC=N4)C5=CC(=CC=C5)NC(=O)C6=CN=C(C=C6)N + CS(=O)(=O)CCNCc1ccc(-c2ccc3ncnc(Nc4ccc(OCc5cccc(F)c5)c(Cl)c4)c3c2)o1 [Lapatinib] (partner 2 µM)
Summary of the method: as §1

[3] = compound: C1COCCN1C2=NC(=NC3=C2OC4=C3C=CC=N4)C5=CC(=CC=C5)NC(=O)C6=CN=C(C=C6)N + CS(=O)(=O)N1CCN(Cc2cc3nc(-c4cccc5[nH]ncc45)nc(N4CCOCC4)c3s2)CC1 [Pictilisib] (partner 1 µM)
Summary of the method: as §1

[4] = compound: Nc1ccccc1NC(=O)c1ccc(CNC(=O)OCc2cccnc2)cc1 [Entinostat] + CS(=O)(=O)N1CCN(Cc2cc3nc(-c4cccc5[nH]ncc45)nc(N4CCOCC4)c3s2)CC1 [Pictilisib] (partner 1 µM)
Summary of the method: as §1

| Cell Line | relative viability ([1]; first compound 0.02 µM) | relative viability ([1]; first compound 0.06325 µM) | relative viability ([1]; first compound 0.2 µM) | relative viability ([1]; first compound 0.6325 µM) | relative viability ([1]; first compound 2 µM) | relative viability ([2]; first compound 0.02 µM) | relative viability ([2]; first compound 0.06325 µM) | relative viability ([2]; first compound 0.2 µM) | relative viability ([2]; first compound 0.6325 µM) | relative viability ([2]; first compound 2 µM) | relative viability ([3]; first compound 0.02 µM) | relative viability ([3]; first compound 0.06325 µM) | relative viability ([3]; first compound 0.2 µM) | relative viability ([3]; first compound 0.6325 µM) | relative viability ([3]; first compound 2 µM) | relative viability ([4]; first compound 0.02 µM) | relative viability ([4]; first compound 0.06325 µM) | relative viability ([4]; first compound 0.2 µM) | relative viability ([4]; first compound 0.6325 µM) | relative viability ([4]; first compound 2 µM) |
| --- | --- | --- | --- | --- | --- | --- | --- | --- | --- | --- | --- | --- | --- | --- | --- | --- | --- | --- | --- | --- |
| LXF-289 | 0.422 | 0.381 | 0.446 | 0.358 | 0.31 | 0.939 | 0.97 | 0.99 | 0.9 | 0.696 | 0.782 | 0.861 | 0.703 | 0.758 | 0.602 | 0.78 | 0.81 | 0.657 | 0.393 | 0.191 |
| NCI-H23 | 0.32 | 0.344 | 0.3 | 0.268 | 0.234 | 1.43 | 1.15 | 1.18 | 0.988 | 0.719 | 0.473 | 0.504 | 0.409 | 0.432 | 0.32 | 0.496 | 0.576 | 0.499 | 0.404 | 0.296 |
| NCI-H322M | 0.742 | 0.722 | 0.787 | 0.725 | 0.665 | 0.553 | 0.574 | 0.506 | 0.604 | 0.45 | 0.508 | 0.542 | 0.474 | 0.585 | 0.484 | 0.513 | 0.595 | 0.561 | 0.559 | 0.295 |
| NCI-H358 | 0.188 | 0.201 | 0.173 | 0.153 | 0.137 | 0.438 | 0.45 | 0.34 | 0.387 | 0.355 | 0.287 | 0.302 | 0.288 | 0.328 | 0.296 | 0.332 | 0.327 | 0.369 | 0.278 | 0.187 |
| NCI-H460 | 0.438 | 0.372 | 0.203 | 0.0553 | 0.0422 | 0.907 | 1.12 | 1.11 | 0.578 | 0.0915 | 0.411 | 0.384 | 0.255 | 0.355 | 0.294 | 0.328 | 0.411 | 0.333 | 0.132 | 0.108 |
| NCI-H520 | 0.571 | 0.464 | 0.482 | 0.385 | 0.35 | 0.874 | 1.03 | 0.897 | 0.852 | 0.441 | 0.302 | 0.327 | 0.274 | 0.293 | 0.179 | 0.327 | 0.284 | 0.32 | 0.282 | 0.275 |
| NCI-H596 | 0.9 | 1.11 | 0.869 | 1.01 | 0.66 | 0.997 | 1.04 | 1 | 0.997 | 0.765 | 0.356 | 0.386 | 0.374 | 0.315 | 0.407 | 0.401 | 0.4 | 0.372 | 0.333 | 0.348 |
| NCI-H647 | 0.382 | 0.256 | 0.258 | 0.166 | 0.166 | 1.11 | 1.22 | 0.965 | 0.868 | 0.275 | 0.465 | 0.483 | 0.418 | 0.353 | 0.339 | 0.508 | 0.755 | 0.469 | 0.314 | 0.093 |
| NCI-H650 | 0.312 | 0.336 | 0.252 | 0.278 | 0.226 | 0.913 | 0.915 | 0.891 | 1.02 | 0.517 | 0.948 | 0.947 | 0.861 | 0.77 | 0.741 | 0.934 | 0.914 | 0.75 | 0.579 | 0.269 |
| NCI-H661 | 0.58 | 0.549 | 0.538 | 0.479 | 0.356 | 0.53 | 0.554 | 0.525 | 0.351 | 0.406 | 0.441 | 0.395 | 0.392 | 0.375 | 0.163 | 0.47 | 0.614 | 0.559 | 0.565 | 0.407 |
| NCI-H727 | 0.913 | 1.35 | 1.03 | 0.853 | 0.681 | 0.829 | 0.753 | 0.742 | 0.722 | 0.686 | 0.298 | 0.335 | 0.342 | 0.412 | 0.285 | 0.357 | 0.355 | 0.689 | 0.2 | 0.219 |
| NCI-H838 | 0.484 | 0.541 | 0.477 | 0.431 | 0.341 | 0.725 | 1.06 | 0.895 | 0.705 | 0.53 | 0.481 | 0.446 | 0.45 | 0.362 | 0.311 | 0.439 | 0.613 | 0.72 | 0.461 | 0.237 |
| NCI-H1355 | 0.356 | 0.335 | 0.3 | 0.315 | 0.266 | 0.95 | 1.01 | 0.997 | 0.936 | 0.814 | 0.336 | 0.424 | 0.413 | 0.423 | 0.459 | 0.473 | 0.411 | 0.389 | 0.254 | 0.201 |
| NCI-H1395 | 0.693 | 0.726 | 0.626 | 0.556 | 0.492 | 0.782 | 1.13 | 0.91 | 0.983 | 0.831 | 0.699 | 0.604 | 0.569 | 0.587 | 0.57 | 0.598 | 0.758 | 0.64 | 0.67 | 0.487 |
| NCI-H1437 | 0.522 | 0.436 | 0.357 | 0.267 | 0.217 | 0.801 | 0.952 | 0.746 | 0.794 | 0.327 | 0.357 | 0.483 | 0.41 | 0.362 | 0.337 | 0.415 | 0.255 | 0.182 | 0.147 | 0.112 |
| NCI-H1650 | 0.381 | 0.394 | 0.43 | 0.258 | 0.273 | 0.791 | 0.792 | 0.7 | 0.775 | 0.613 | 0.505 | 0.588 | 0.526 | 0.592 | 0.483 | 0.65 | 0.67 | 0.554 | 0.407 | 0.248 |
